Experimental data as given in patent US6586402B1, “LH-RH peptide analogues, their uses and pharmaceutical compositions containing them” (Laboratoire Theramex, priority 1997, dated 2003).
“Also recorded” adds a separate entry of the source. Read-outs that look alike come from different tables or passages of the source. Square brackets hold non-standard residues; d marks the D form. Peptide text beside a SMILES is read from it. * marks the point of attachment. dPhe(4-Cl) = N[C@H](Cc1ccc(Cl)cc1)C(=O)O; d2Nal = N[C@H](Cc1ccc2ccccc2c1)C(=O)O; d(hCit) = NC(=O)NCCCC[C@@H](N)C(=O)O; Lys(iPr) = CC(C)NCCCC[C@H](N)C(=O)O; dCit = NC(=O)NCCC[C@@H](N)C(=O)O; tBuAla = CC(C)(C)C[C@H](N)C(=O)O; d3Pal = N[C@H](Cc1cccnc1)C(=O)O; pGlu = O=C1CC[C@@H](C(=O)O)N1; Nicotinoyl = O=C(c1cccnc1)*

B1: pGlu-His-Trp-Ser-Tyr-D-Nal-Npg-Arg-Pro-Gly-NH2 (peptide)
peptide: XHWSYXXRPG
modifications: pGlu at 1; D-Nal (3-(2-naphtyl)alanine) at 6; Npg at 7; C-terminal Gly-NH2 (amide)
B2: AcD-Nal-D-pClPhe-D-Pal-Ser-Tyr-D-HCit-Npg-Arg-Pro-D-Ala-NH2 (peptide)
peptide: Ac-X[dPhe(4-Cl)][d3Pal]SY[d(hCit)][tBuAla]RP[dA]-NH2
modifications: not fully specified (residue 1); printed as AcD-Nal-D-pClPhe-D-Pal-Ser-Tyr-D-HCit-Npg-Arg-Pro-D-Ala-NH2; also: trifluoroacetate salt
B3: AcD-Nal-D-pClPhe-D-Pal-Ser-Tyr-D-Cit-Npg-Arg-Pro-D-Ala-NH2 (peptide)
peptide: Ac-X[dPhe(4-Cl)][d3Pal]SY[dCit][tBuAla]RP[dA]-NH2
modifications: not fully specified (residue 1); printed as AcD-Nal-D-pClPhe-D-Pal-Ser-Tyr-D-Cit-Npg-Arg-Pro-D-Ala-NH2; also: trifluoroacetate salt

Legend:
LH-RH receptors [1] = target: T1, LH-RH receptors (Rattus norvegicus, UniProt P30969); test: biochemical
T1 sequence (P30969 1-327): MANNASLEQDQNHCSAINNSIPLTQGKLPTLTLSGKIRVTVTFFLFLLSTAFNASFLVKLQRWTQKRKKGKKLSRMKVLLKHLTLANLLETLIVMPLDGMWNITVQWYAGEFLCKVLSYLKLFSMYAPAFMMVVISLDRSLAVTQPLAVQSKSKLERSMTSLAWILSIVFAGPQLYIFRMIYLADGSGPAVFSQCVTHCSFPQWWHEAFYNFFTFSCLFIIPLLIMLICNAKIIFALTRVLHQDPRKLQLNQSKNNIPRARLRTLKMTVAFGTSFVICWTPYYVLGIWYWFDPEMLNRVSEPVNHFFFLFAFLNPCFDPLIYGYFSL

LH-RH receptors [2] = target: T1, LH-RH receptors; test: Stimulation of testosterone secretion in adult male rats after subcutaneous injection (agonist activity in vivo); parameters: exert an agonist activity upon the LH-RH receptors in vivo; from tissue; host or cells: whole animal, adult male Sprague-Dawley rats; species or system Sprague-Dawley rats; settings: for agonistic potency in words: comment on Tables 2 and 3; for Total plasma testosterone: Table 2, 10 ng/kg subcutaneous in PBS, blood two hours later, male Sprague-Dawley rats, vehicle 2.7 ± 0.3
Procedure: The peptides according to the general formula (IIa) exert an agonist activity upon the LH-RH receptors in vivo, resulting in the stimulation of LH secretion by the pituitary, which, in males, stimulates the secretion of testosterone by the testis.
Two hours later, blood samples were drawn for total plasma testosterone determination by direct radioimmunoassay (Immunotech).
At this intermediate dose of 10 ng/kg, several examples with Npg^7 or Ada^7 in place of Leu^7 according to the invention were screened for agonistic activity (Tables 2 and 3). When available from Bachem (France) or Sigma (France), the corresponding standard agonist with Leu^7 was tested for comparison.

LH-RH receptors [3] = target: T1, LH-RH receptors
[4] = target: LH-RH receptors (membrane fractions of pituitaries from female Sprague Dawley rats) (rat (female Sprague Dawley)) (UniProt P30969); test: competition with [125I]-buserelin, rat pituitary membranes; Ki by Cheng-Prusoff

| Molecule | Ki (LH-RH receptors [1]) [nM] | Total plasma testosterone (LH-RH receptors [2]) [nmol/L] | pKi [4] | further results |
| --- | --- | --- | --- | --- |
| CCNC(=O)[C@@H]1CCCN1C(=O)[C@H](CCCNC(=N)N)NC(=O)[C@H](CC(C)(C)C)NC(=O)[C@@H](Cc1ccc2ccccc2c1)NC(=O)[C@H](Cc1ccc(O)cc1)NC(=O)[C@H](CO)NC(=O)[C@H](Cc1c[nH]c2ccccc12)NC(=O)[C@H](Cc1c[nH]cn1)NC(=O)[C@@H]1CCC(=O)N1 [Example 14, pGlu-His-Trp-Ser-Tyr-D-Nal-Npg-Arg-Pro-NEt] | 0.316 |  |  |  |
| CC(C)(C)C[C@H](NC(=O)[C@@H](Cc1ccccc1)NC(=O)[C@H](Cc1ccc(O)cc1)NC(=O)[C@H](CO)NC(=O)[C@H](Cc1c[nH]c2ccccc12)NC(=O)[C@H](Cc1c[nH]cn1)NC(=O)[C@@H]1CCC(=O)N1)C(=O)N[C@@H](CCCNC(=N)N)C(=O)N1CCC[C@H]1C(=O)NCC(N)=O [Example 9, pGlu-His-Trp-Ser-Tyr-D-Phe-Npg-Arg-Pro-Gly-NH2] ([pGlu]HWSY[dF][tBuAla]RPG-NH2) | 2.34 | 30.9 ± 3.6 |  | agonistic potency in words (LH-RH receptors [2]; 10 ng/kg s.c.): range of potency similar to that of leuprorelin or tryptorelin |
| CC(C)(C)C[C@H](NC(=O)[C@@H](Cc1ccc2ccccc2c1)NC(=O)[C@H](Cc1ccc(O)cc1)NC(=O)[C@H](CO)NC(=O)[C@H](Cc1c[nH]c2ccccc12)NC(=O)[C@H](Cc1c[nH]cn1)NC(=O)[C@@H]1CCC(=O)N1)C(=O)N[C@@H](CCCNC(=N)N)C(=O)N1CCC[C@H]1C(=O)NCC(N)=O [Example 13, pGlu-His-Trp-Ser-Tyr-D-Nal-Npg-Arg-Pro-Gly-NH2] ([pGlu]HWSY[d2Nal][tBuAla]RPG-NH2) | 1.07 | 22.9 ± 4.2 |  | agonistic potency in words (LH-RH receptors [2]; 10 ng/kg s.c.): range of potency similar to that of leuprorelin or tryptorelin |
| CCNC(=O)[C@@H]1CCCN1C(=O)[C@H](CCCNC(=N)N)NC(=O)[C@H](CC(C)(C)C)NC(=O)[C@@H](CC(C)(C)C)NC(=O)[C@H](Cc1ccc(O)cc1)NC(=O)[C@H](CO)NC(=O)[C@H](Cc1c[nH]c2ccccc12)NC(=O)[C@H](Cc1c[nH]cn1)NC(=O)[C@@H]1CCC(=O)N1 [Example 8, pGlu-His-Trp-Ser-Tyr-D-Npg-Npg-Arg-Pro-NEt] | 1.86 |  |  |  |
| CCNC(=O)[C@@H]1CCCN1C(=O)[C@H](CCCNC(=N)N)NC(=O)[C@H](CC(C)(C)C)NC(=O)[C@@H](C)NC(=O)[C@H](Cc1ccc(O)cc1)NC(=O)[C@H](CO)NC(=O)[C@H](Cc1c[nH]c2ccccc12)NC(=O)[C@H](Cc1c[nH]cn1)NC(=O)[C@@H]1CCC(=O)N1 [Example 4, pGlu-His-Trp-Ser-Tyr-D-Ala-Npg-Arg-Pro-NEt] | 0.0977 | 33.8 ± 5.8 |  |  |
| CC(=O)N[C@H](Cc1ccc2ccccc2c1)C(=O)N[C@H](Cc1ccc(Cl)cc1)C(=O)N[C@H](Cc1cccnc1)C(=O)N[C@@H](CO)C(=O)N[C@@H](CCCCNC(=O)c1cccnc1)C(=O)N[C@H](CCCCNC(=O)c1cccnc1)C(=O)N[C@@H](CC(C)(C)C)C(=O)N[C@@H](CCCCNC(C)C)C(=O)N1CCC[C@H]1C(=O)N[C@H](C)C(N)=O [Example 15, AcD-Nal-D-pClPhe-D-Pal-Ser-NicLys-D-NicLys-Npg-IprLys-Pro-D-Ala-NH2] (Ac-[d2Nal][dPhe(4-Cl)][d3Pal]SK(Nicotinoyl)[dK](Nicotinoyl)[tBuAla][Lys(iPr)]P[dA]-NH2) | 0.589 |  |  | % of inhibition of ovulation (LH-RH receptors [3]; 0.1 μg/rat s.c.): 0%; % of inhibition of ovulation (LH-RH receptors [3]; 0.25 μg/rat s.c.): 60%; % of inhibition of ovulation (LH-RH receptors [3]; 0.5 μg/rat s.c.): 100%; % of inhibition of ovulation (LH-RH receptors [3]; 1 μg/rat s.c.): 80% |
| AcD-Nal-D-pClPhe-D-Pal-Ser-Tyr-D-Cit-Npg-IprLys-Pro-D-Ala-NH2 (peptide) |  |  | 9.72 -log Ki |  |
| CC(=O)N[C@H](Cc1ccc2ccccc2c1)C(=O)N[C@H](Cc1ccc(Cl)cc1)C(=O)N[C@H](Cc1cccnc1)C(=O)N[C@@H](CO)C(=O)N[C@@H](Cc1ccc(O)cc1)C(=O)N[C@H](CCCCNC(N)=O)C(=O)N[C@@H](CC(C)(C)C)C(=O)N[C@@H](CCCCNC(C)C)C(=O)N1CCC[C@H]1C(=O)N[C@H](C)C(N)=O [Example 18, AcD-Nal-D-pClPhe-D-Pal-Ser-Tyr-D-HCit-Npg-IprLys-Pro-D-Ala-NH2] (Ac-[d2Nal][dPhe(4-Cl)][d3Pal]SY[d(hCit)][tBuAla][Lys(iPr)]P[dA]-NH2) | 0.0851 |  |  | % of inhibition of ovulation (LH-RH receptors [3]; 0.25 μg/rat s.c.): 20%; % of inhibition of ovulation (LH-RH receptors [3]; 1 μg/rat s.c.): 80% |
| pGlu-His-Trp-Ser-Tyr-D-Trp-Npg-Arg-Pro-NEt (peptide) |  |  | 9.79 -log Ki |  |
| CCNC(=O)[C@@H]1CCCN1C(=O)[C@H](CCCNC(=N)N)NC(=O)[C@H](CC(C)(C)C)NC(=O)[C@@H](Cc1ccccc1)NC(=O)[C@H](Cc1ccc(O)cc1)NC(=O)[C@H](CO)NC(=O)[C@H](Cc1c[nH]c2ccccc12)NC(=O)[C@H](Cc1c[nH]cn1)NC(=O)[C@@H]1CCC(=O)N1 [Example 10, pGlu-His-Trp-Ser-Tyr-D-Phe-Npg-Arg-Pro-NEt] | 0.229 | 23.5 ± 4.0 |  |  |
| CCNC(=O)[C@@H]1CCCN1C(=O)[C@H](CCCNC(=N)N)NC(=O)[C@H](CC(C)C)NC(=O)[C@@H](COC(C)(C)C)NC(=O)[C@H](Cc1ccc(O)cc1)NC(=O)[C@H](CO)NC(=O)[C@H](Cc1c[nH]c2ccccc12)NC(=O)[C@H](Cc1cnc[nH]1)NC(=O)[C@@H]1CCC(=O)N1 [Buserelin, reference compound] | 0.447 |  |  |  |
| CCNC(=O)[C@@H]1CCCN1C(=O)[C@H](CCCNC(=N)N)NC(=O)[C@H](CC(C)(C)C)NC(=O)[C@@H](Cc1c[nH]c2ccccc12)NC(=O)[C@H](Cc1ccc(O)cc1)NC(=O)[C@H](CO)NC(=O)[C@H](Cc1c[nH]c2ccccc12)NC(=O)[C@H](Cc1c[nH]cn1)NC(=O)[C@@H]1CCC(=O)N1 [Example 12, pGlu-His-Trp-Ser-Tyr-D-Trp-Npg-Arg-Pro-NEt] | 0.162 | 20.5 ± 5.2 |  |  |
| CCNC(=O)[C@@H]1CCCN1C(=O)[C@H](CCCNC(=N)N)NC(=O)[C@H](CC(C)(C)C)NC(=O)[C@@H](CC(C)C)NC(=O)[C@H](Cc1ccc(O)cc1)NC(=O)[C@H](CO)NC(=O)[C@H](Cc1c[nH]c2ccccc12)NC(=O)[C@H](Cc1c[nH]cn1)NC(=O)[C@@H]1CCC(=O)N1 [Example 6, pGlu-His-Trp-Ser-Tyr-D-Leu-Npg-Arg-Pro-NEt] | 0.468 | 48.6 ± 4.3 |  | activity in stimulating testosterone secretion relative to the Leu^7 counterpart (LH-RH receptors [2]; 10 ng/kg s.c.): a little more than twice as active as leuprorelin; agonistic potency in words (LH-RH receptors [2]; 10 ng/kg s.c.): Npg^7 led to more potent agonists than Ada^7; also recorded: more potent LH-RH agonists than current therapeutic LH-RH analogues |
| pGlu-His-Trp-Ser-Tyr-D-Npg-Npg-Arg-Pro-NEt (peptide) |  |  | 8.73 -log Ki |  |
| pGlu-His-Trp-Ser-Tyr-D-Nal-Npg-Arg-Pro-NEt (peptide) |  |  | 9.5 -log Ki |  |
| C[C@@H](NC(=O)[C@H](Cc1ccc(O)cc1)NC(=O)[C@H](CO)NC(=O)[C@H](Cc1c[nH]c2ccccc12)NC(=O)[C@H](Cc1c[nH]cn1)NC(=O)[C@@H]1CCC(=O)N1)C(=O)N[C@@H](CC(C)(C)C)C(=O)N[C@@H](CCCNC(=N)N)C(=O)N1CCC[C@H]1C(=O)NCC(N)=O [Example 3, pGlu-His-Trp-Ser-Tyr-D-Ala-Npg-Arg-Pro-Gly-NH2] ([pGlu]HWSY[dA][tBuAla]RPG-NH2) | 0.269 | 16.7 ± 1.9 |  |  |
| XHWSYXXRPG (pGlu at 1; D-Npg at 6; Npg at 7; C-terminal Gly-NH2 (amide)) [pGlu-His-Trp-Ser-Tyr-D-Npg-Npg-Arg-Pro-Gly-NH2] |  |  | 8.2 -log Ki |  |
| B1 |  |  | 8.97 -log Ki |  |
| B2 |  |  | 10.1 -log Ki |  |
| XHWSYXXRPG (pGlu at 1; D-Ala at 6; Npg at 7; C-terminal Gly-NH2 (amide)) [pGlu-His-Trp-Ser-Tyr-D-Ala-Npg-Arg-Pro-Gly-NH2] |  |  | 9.57 -log Ki |  |
| B3 |  |  | 10.2 -log Ki |  |
| XHWSYXXRPG (pGlu at 1; D-Phe at 6; Npg at 7; C-terminal Gly-NH2 (amide)) [pGlu-His-Trp-Ser-Tyr-D-Phe-Npg-Arg-Pro-Gly-NH2] |  |  | 8.63 -log Ki |  |
